In US8003669B2, “Remedy for sleep disturbance” (Mitsubishi Tanabe Pharma Corporation, priority 2002, dated 2011):

Tests used:
ORL-1 receptor = biological target: T1, ORL-1 receptor (Rattus norvegicus, UniProt P35370); assay: ORL-1 receptor binding test ([3H]-nociceptin); settings: receptor prepared from cerebral cortex of rat
T1 construct: a standard product of the receptor prepared from cerebral cortex of rat; from tissue; host or cells: rat cerebral cortex

human ORL-1 receptor = human ORL-1 receptor (Homo sapiens, UniProt P41146); assay: Agonist action: inhibition of forskolin-stimulated cAMP elevation in HEK293 cells; assay type: cell-based; settings: HEK293 cells expressing human ORL-1 receptor, forskolin 1 μmol/L
rats = assay: Antagonistic action of the ORL-1 receptor antagonist on the phase advancement by the ORL-1 receptor agonist; assay type: in vivo, rat; settings: constant dark, oral

T1 sequence (P35370 whole entry): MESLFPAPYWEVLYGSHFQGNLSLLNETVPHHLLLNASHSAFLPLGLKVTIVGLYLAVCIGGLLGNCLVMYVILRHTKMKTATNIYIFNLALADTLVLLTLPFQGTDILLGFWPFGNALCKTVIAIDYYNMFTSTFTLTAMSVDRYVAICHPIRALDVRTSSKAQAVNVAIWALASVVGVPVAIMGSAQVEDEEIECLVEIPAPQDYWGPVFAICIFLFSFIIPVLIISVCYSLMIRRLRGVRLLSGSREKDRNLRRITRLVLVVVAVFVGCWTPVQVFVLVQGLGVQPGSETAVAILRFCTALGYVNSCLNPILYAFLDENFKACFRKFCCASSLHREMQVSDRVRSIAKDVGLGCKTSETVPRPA
human ORL-1 receptor, sequence (P41146 whole entry): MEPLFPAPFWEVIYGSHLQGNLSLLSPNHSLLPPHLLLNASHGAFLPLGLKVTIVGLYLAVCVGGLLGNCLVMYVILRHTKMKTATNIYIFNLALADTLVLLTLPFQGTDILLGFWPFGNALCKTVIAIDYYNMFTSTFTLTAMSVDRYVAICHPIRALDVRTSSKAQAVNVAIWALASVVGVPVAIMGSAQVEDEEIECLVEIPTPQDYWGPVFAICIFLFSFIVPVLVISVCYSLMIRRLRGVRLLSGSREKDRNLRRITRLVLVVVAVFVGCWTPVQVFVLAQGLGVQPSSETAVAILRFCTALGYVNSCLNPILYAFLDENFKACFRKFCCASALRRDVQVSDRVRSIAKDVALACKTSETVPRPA

IC50 (ORL-1 receptor; 25° C., 20 minutes, read-out: IC50 value, inhibition of the binding of [3H]-nociceptin): 0.5 µM
Ki (ORL-1 receptor; Ki=IC50/(1+L/Kd), read-out: Ki value, inhibition of the binding of [3H]-nociceptin): 0.0606 µM
inhibition of cAMP production (ORL-1 receptor agonistic activity) (human ORL-1 receptor): did not inhibit cAMP production
SMILES: CCc1ccc(OCc2ccccc2C(=O)Nc2ccc3nc(C)cc(N)c3c2)cc1.Cl [compound D, N-(4-amino-2-methylquinolin-6-yl)-2-(4-ethylphenoxymethyl)benzamide hydrochloride]
phase shift for the ORL-1 receptor antagonist alone (rats): no phase shift was observed
